According to patent US11560373B2, “Compounds and their use as PDE4 activators” (Mironid Limited, priority 2018, dated 2023):

Molecular target: T1, PDE4D5 (Homo sapiens, UniProt Q08499)
T1 construct: stably expressed the full-length human PDE4D5, PDE4B1 and PDE4A4 long isoforms; made in house
Experiment: PDE assay, [3H]cAMP hydrolysis by HEK-PDE4D5 cell lysate cytosol fraction
Format: biochemical
Conditions: for activation at 30 µM: mean % increase in counts over basal activity
Procedure: HEK 293 cells were transfected with pDEST™ PDE4 expression vectors using Lipofectamine LTX/Plus reagent (Invitrogen) as outlined by the manufacturer and clonal isolates expanded to obtain cell lines that stably expressed the full-length human PDE4D5, PDE4B1 and PDE4A4 long isoforms and the full length human PDE4B2 short isoform. These were called the HEK-PDE4D5, HEK-PDE4B1, HEK-PDE4A4 and HEK-PDE4B2 cell lines, respectively.
HEK-PDE4D5 cells were seeded out in 100 mm plates and incubated at 37° C. in an atmosphere of 5% CO2, 95% air. Cell lysates were prepared using KHEM buffer [50 mM KCl, 10 mM EGTA, 50 mM HEPES (pH 7.2), 1.92 mM MgCl2].
To prepare the cell lysates, the 100 mm plates containing the cells were placed on ice and washed with ice-cold PBS (phosphate buffered saline, pH 7.4). KHEM buffer (500 μl) was added to the cells. Cells were then scraped off the plate and triturated using a needle (BD Microlance™ 0.8, 40 mm). The lysed cells were then centrifuged at 2000 rpm for 10 minutes to remove cell debris and the supernatant (cell lysate containing recombinant PDE4D5) was transferred to a fresh tube and kept on ice.
The cell lysate containing recombinant PDE4D5 was transferred into a centrifuge tube and placed into an ultracentrifuge (BECKMAN COULTER) and spun at high speed (100,000 g) for 30 minutes at 4° C. The cytosol fraction was then collected and its protein amount determined using a BCA protein assay.
PDE assays were performed in thin walled V-bottomed 96-well plates. The assays were performed at a final concentration of 10 mM Tris/5 mM MgCl2 plus PDE4D5 cell lysate cytosol fraction, containing over-expressed PDE4D5, with and without test compound. The lysate/compound mix were incubated together for 15 min at room temperature on an orbital shaker prior to addition of [^3H] cAMP (final concentration 1 μM [^3H] cAMP; Perkin Elmer) to a final volume of 50 μl per reaction. The reactions were then incubated for 10 minutes at 30° C., terminated by heating for 2 min at 95° C. and allowed to cool. Snake venom (12.5 μl of 1 mg/ml; Crotalus atrox, Sigma) was then added and the plates were agitated and incubated for a further 15 minutes at 30° C. Dowex ion exchange resin (Sigma, chloride form, 200-400 mesh; 200 μl; prepared as a 1:1 Dowex: water stock, thoroughly re-suspended and diluted 2:1 with ethanol) was then added to each well and the plates incubated for 15 min at room temperature on an orbital shaker ensuring sufficient agitation for resin suspension (550 RPM). The reaction mixture was then transferred to a 96 well filter plate (Millipore; […] pore size) and filtered into a receiving 96-well plate to remove the dowex suspension. 30 μL of the filtered solution was then transferred to the wells of an Opti-plate (Perkin Elmer) 96 well assay plate and 120 μl of Microscint 40 scintillation fluid was added. The plate was then placed on an orbital shaker for 10 min at high speed (900 RPM) to mix the sample with scintillation fluid prior to quantitation using a plate based scintillation counter (Top-Count).
The % increase in counts in the presence of test compound at a particular concentration indicates the % increase in enzyme activity at that concentration.

T1 sequence (Q08499 1-745 isoform Q08499-6): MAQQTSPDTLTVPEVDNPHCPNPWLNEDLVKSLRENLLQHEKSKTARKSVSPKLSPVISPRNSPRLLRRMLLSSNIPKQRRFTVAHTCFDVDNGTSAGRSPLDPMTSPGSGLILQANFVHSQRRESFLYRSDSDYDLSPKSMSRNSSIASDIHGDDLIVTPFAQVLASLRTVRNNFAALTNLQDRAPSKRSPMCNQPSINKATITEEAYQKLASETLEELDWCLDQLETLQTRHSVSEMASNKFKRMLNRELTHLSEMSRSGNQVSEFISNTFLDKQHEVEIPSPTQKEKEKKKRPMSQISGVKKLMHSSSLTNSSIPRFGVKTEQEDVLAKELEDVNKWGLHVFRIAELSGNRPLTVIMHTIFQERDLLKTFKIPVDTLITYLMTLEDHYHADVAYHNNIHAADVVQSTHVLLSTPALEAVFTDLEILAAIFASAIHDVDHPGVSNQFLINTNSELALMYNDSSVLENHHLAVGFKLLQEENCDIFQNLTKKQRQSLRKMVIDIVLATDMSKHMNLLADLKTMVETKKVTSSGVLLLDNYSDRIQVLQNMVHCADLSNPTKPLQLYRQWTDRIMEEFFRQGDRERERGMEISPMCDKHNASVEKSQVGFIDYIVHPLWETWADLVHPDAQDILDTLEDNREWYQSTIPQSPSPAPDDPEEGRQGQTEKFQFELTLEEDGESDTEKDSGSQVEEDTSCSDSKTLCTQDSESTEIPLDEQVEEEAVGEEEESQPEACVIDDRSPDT

| Compound | activation at 30 µM [%] | activation of PDE4 long form PDE4D5 (FIG. 1) (dose response, FIG. 1) |
| --- | --- | --- |
| CCn1nc(-c2ccc(Cl)c(F)c2)nc1CC(=O)NCc1cccc2cn[nH]c12 [Example 4, 2-[3-(4-Chloro-3-fluorophenyl)-1-ethyl-1H-1,2,4-triazol-5-yl]-N-[(1H-indazol-7-yl)methyl]acetamide] | 32.2 |  |
| CCn1nc(-c2ccc(Cl)c(F)c2)nc1CC(=O)NCc1cc(Cl)cc(Cl)c1 [Example 5, 2-[3-(4-Chloro-3-fluorophenyl)-1-ethyl-1H-1,2,4-triazol-5-yl]-N-(3,5-dichlorobenzyl)acetamide] | 56.1 | dose-dependent activation |
| CCn1nc(-c2ccc(Cl)c(F)c2)nc1CC(=O)Nc1cc(C)on1 [Example 6, 2-[3-(4-Chloro-3-fluorophenyl)-1-ethyl-1H-1,2,4-triazol-5-yl]-N-(5-methyl-1,2-oxazol-3-yl)acetamide] | 38.5 |  |
| CCn1nc(-c2ccc(Cl)c(F)c2)nc1CC(=O)NCc1ccc2[nH]ncc2c1 [Example 7, 2-[3-(4-Chloro-3-fluorophenyl)-1-ethyl-1H-1,2,4-triazol-5-yl]-N-[(1H-indazol-5-yl)methyl]acetamide] | 94.1 |  |
| CCn1nc(-c2ccc(Cl)c(F)c2)nc1CC(=O)Nc1cnccn1 [Example 8, 2-[3-(4-Chloro-3-fluorophenyl)-1-ethyl-1H-1,2,4-triazol-5-yl]-N-(pyrazin-2-yl)acetamide] | 49.6 |  |
| CCn1nc(-c2ccc(Cl)c(F)c2)nc1CC(=O)NCc1ccc2[nH]c(=O)[nH]c2c1 [Example 9, 2-[3-(4-Chloro-3-fluorophenyl)-1-ethyl-1H-1,2,4-triazol-5-yl]-N-[(2-oxo-2,3-dihydro-1H-benzo[d]imidazol-5-yl)methyl]acetamide] | 55.6 |  |
| CCn1nc(-c2ccc(Cl)c(F)c2)nc1CC(=O)NCc1cc(C)cc(Cl)c1 [Example 10, 2-[3-(4-Chloro-3-fluorophenyl)-1-ethyl-1H-1,2,4-triazol-5-yl]-N-[(3-chloro-5-methylphenyl)methyl]acetamide] | 136 |  |
| CCn1nc(-c2ccc(Cl)c(F)c2)nc1CC(=O)NCc1cc(C)cc(F)c1 [Example 11, 2-[3-(4-Chloro-3-fluorophenyl)-1-ethyl-1H-1,2,4-triazol-5-yl]-N-[(3-fluoro-5-methylphenyl)methyl]acetamide] | 52.8 |  |
| CCn1nc(-c2ccc(Cl)c(F)c2)nc1CC(=O)NCc1cc(C)cc(C)c1 [Example 12, 2-[3-(4-Chloro-3-fluorophenyl)-1-ethyl-1H-1,2,4-triazol-5-yl]-N-[(3,5-dimethylphenyl)methyl]acetamide] | 71.6 |  |
| CCn1nc(-c2ccc(Cl)c(F)c2)nc1CC(=O)NCc1cccc(F)c1F [Example 13, 2-[3-(4-Chloro-3-fluorophenyl)-1-ethyl-1H-1,2,4-triazol-5-yl]-N-[(2,3-difluorophenyl)methyl]acetamide] | 28.4 |  |
| CCOc1cccc(CNC(=O)Cc2nc(-c3ccc(Cl)c(F)c3)nn2CC)c1 [Example 14, 2-[3-(4-Chloro-3-fluorophenyl)-1-ethyl-1H-1,2,4-triazol-5-yl]-N-[(3-ethoxyphenyl)methyl]acetamide] | 142 |  |
| CCn1nc(-c2ccc(Cl)c(F)c2)nc1CC(=O)NCc1cc(OC)cc(OC)c1 [Example 15, 2-[3-(4-Chloro-3-fluorophenyl)-1-ethyl-1H-1,2,4-triazol-5-yl]-N-[(3,5-dimethoxyphenyl)methyl]acetamide] | 61.5 |  |
| CCn1nc(-c2ccc(Cl)c(F)c2)nc1CC(=O)NCc1ccc(OC)cc1 [Example 16, 2-[3-(4-Chloro-3-fluorophenyl)-1-ethyl-1H-1,2,4-triazol-5-yl]-N-[(4-methoxyphenyl)methyl]acetamide] | 44.7 |  |
| CCn1nc(-c2ccc(Cl)c(F)c2)nc1CC(=O)NCc1ccc(OC)nc1 [Example 17, 2-[3-(4-Chloro-3-fluorophenyl)-1-ethyl-1H-1,2,4-triazol-5-yl]-N-[(6-methoxypyridin-3-yl)methyl]acetamide] | 26.8 |  |
| Cn1nc(-c2ccc(Cl)c(F)c2)nc1CC(=O)NCc1cc(Cl)cc(Cl)c1 [Example 18, 2-[3-(4-Chloro-3-fluorophenyl)-1-methyl-1H-1,2,4-triazol-5-yl]-N-[(3,5-dichlorophenyl)methyl]acetamide] | 77.8 |  |
| COc1cccc(CNC(=O)Cc2nc(-c3ccc(Cl)c(F)c3)nn2C)c1 [Example 19, 2-[3-(4-Chloro-3-fluorophenyl)-1-methyl-1H-1,2,4-triazol-5-yl]-N-[(3-methoxyphenyl)methyl]acetamide] | 87.8 |  |
| Cn1nc(-c2ccc(Cl)c(F)c2)nc1CC(=O)NCc1cccc(F)c1 [Example 20, 2-[3-(4-Chloro-3-fluorophenyl)-1-methyl-1H-1,2,4-triazol-5-yl]-N-[(3-fluorophenyl)methyl]acetamide] | 78.6 |  |
| Cn1nc(-c2ccc(Cl)c(F)c2)nc1CC(=O)NCc1ccc2[nH]ncc2c1 [Example 21, 2-[3-(4-Chloro-3-fluorophenyl)-1-methyl-1H-1,2,4-triazol-5-yl]-N-[(1H-indazol-5-yl)methyl]acetamide] | 60.8 |  |
| O=C(Cc1nc(-c2ccc(Cl)c(F)c2)nn1CCO)NCc1cc(Cl)cc(Cl)c1 [Example 23, 2-[3-(4-Chloro-3-fluorophenyl)-1-(2-hydroxyethyl)-1H-1,2,4-triazol-5-yl]-N-[(3,5-dichlorophenyl)methyl]acetamide] | 53.8 |  |
| CCn1nc(-c2ccc(Cl)c(F)c2)nc1C(C)C(=O)NCc1cccc(F)c1 (stereo not drawn) [Example 24, 2-[3-(4-Chloro-3-fluorophenyl)-1-ethyl-1H-1,2,4-triazol-5-yl]-N-[(3-fluorophenyl)methyl]propanamide] | 72.2 |  |
| Cc1cc(CNC(=O)Cc2nc(-c3ccc(Cl)c(F)c3)nn2CC2CC2)cc(C)n1 [Example 26, 2-[3-(4-Chloro-3-fluorophenyl)-1-(cyclopropylmethyl)-1H-1,2,4-triazol-5-yl]-N-[(2,6-dimethylpyridin-4-yl)methyl]acetamide] | 87.5 |  |
| O=C(Cc1nc(-c2ccc(Cl)c(F)c2)nn1CC1CC1)NCc1ccc2[nH]ncc2c1 [Example 27, 2-[3-(4-Chloro-3-fluorophenyl)-1-(cyclopropylmethyl)-1H-1,2,4-triazol-5-yl]-N-[(1H-indazol-5-yl)methyl]acetamide] | 106 |  |
| CCn1nc(-c2ccc(OC(F)(F)F)cc2)nc1CC(=O)NCc1cc(Cl)cc(Cl)c1 [Example 28, N-[(3,5-Dichlorophenyl)methyl]-2-{1-ethyl-3-[4-(trifluoromethoxy)phenyl]-1H-1,2,4-triazol-5-yl}acetamide] | 46.3 |  |
| CCn1nc(-c2ccc(C#N)cc2)nc1CC(=O)NCc1cc(Cl)cc(Cl)c1 [Example 30, 2-[3-(4-Cyanophenyl)-1-ethyl-1H-1,2,4-triazol-5-yl]-N-[(3,5-dichlorophenyl)methyl]acetamide] | 45.9 |  |
| CCOc1cc(-c2nc(CC(=O)NCc3cc(Cl)cc(Cl)c3)n(CC)n2)ccc1Cl [Example 32, 2-[3-(4-Chloro-3-ethoxyphenyl)-1-ethyl-1H-1,2,4-triazol-5-yl]-N-[(3,5-dichlorophenyl)methyl]acetamide] | 42.8 |  |
| CCn1nc(-c2ccc(Cl)c(OC(C)C)c2)nc1CC(=O)NCc1cc(C)nc(C)c1 [Example 35, 2-[3-(4-Chloro-3-isopropyloxyphenyl)-1-ethyl-1H-1,2,4-triazol-5-yl]-N-[(2,6-dimethylpyridin-4-yl)methyl]acetamide] | 28.5 |  |
